Assay results from US4027039A (priority 1975, dated 1977).
Where “and” joins values, the source holds several entries; their conditions need not be identical. Equal entries are not always repeated. Where two headings read alike, the source gives them in different places.

Key:
[1] = system: Herpes virus; test: Herpes virus in chicken eggs, single dose 24 hours pre-infection; assay type: in vivo, chick embryo
[2] = system: Influenza, Ann Arbor virus; test: Influenza Ann Arbor in mice, oral; schedule by table; late read day 5 (Tables 15, 25, 29, 30), 6 (18, 20, 22, 23, 26, 27, 28, 54), 7 (14, 19, 21, 24, 53, 56), 8 (16, 17, 51), 9 (11, 55); assay type: in vivo, mouse
[3] = system: Influenza PR 8 virus; test: Influenza PR 8 in mice, oral; schedule by table; late read day 6 (Table 37), 7 (33, 36), 8 (32, 35, 47), 10 (38); control fraction 18/20 (Table 32), 19/20 (Table 35), else 100%; assay type: in vivo, mouse
[4] = system: Influenza PR 8 virus; test: Influenza PR 8 in mice, subcutaneous; late read day 6 (Table 37), 8 (Table 47); assay type: in vivo, mouse
[5] = system: Influenza PR 8 virus; test: Influenza PR 8 in mice, intraperitoneal (Table 47); assay type: in vivo, mouse
[6] = system: Mengo virus; test: Mengo virus in mice, oral; assay type: in vivo, mouse
Description: The results are illustrated in Table 43.

[7] = system: Vaccinia IHD virus; assay type: in vivo, mouse
[8] = system: Vaccinia virus; assay type: in vivo, rabbit
[9] = system: Vaccinia virus; set-up: species or system fertile eggs; settings: various concentrations
[10] = system: Herpes virus
[11] = system: Neurovaccinia virus; test: Neurovaccinia in mice; settings: single dose level, three instances
[12] = system: viral infections; test: Antiviral screening in animals, general statements; settings: mouse, in vivo

## NNC(N)=S [Thiosemicarbazide, thiosemicarbazide]
[1]; 2 μg
  Deaths on day 1: 3
  Deaths on day 3: 5
  Deaths on day 4: 3
  No. dying 5-22 day: 0
  No. living longer than controls: 0
  Total deaths, 4th day: 12
[1]; 20 μg
  Deaths on day 2: 4
  Deaths on day 3: 6
  No. dying 5-22 day: 0
  No. living longer than controls: 0
  Total deaths, 4th day: 12
[1]; .00005 μg
  Deaths on day 1: 2
  Deaths on day 2: 5
  Deaths on day 3: 2
  No. dying 5-22 day: 0
  Total deaths, 4th day: 10
[1]; .0005 μg
  Deaths on day 1: 2
  Deaths on day 2: 3
  Deaths on day 3: 2
  Deaths on day 4: 3
  No. dying 5-22 day: 0
  Total deaths, 4th day: 10
[1]; .005 μg
  Deaths on day 1: 4
  Deaths on day 2: 3
  Deaths on day 3: 3
  No. living longer than controls: 2
  Total deaths, 4th day: 10
[1]; .05 μg
  Deaths on day 2: 3
  Deaths on day 3: 5
  No. dying 5-22 day: 0
  Total deaths, 4th day: 9
[1]; .5 μg
  Deaths on day 1: 3
  Deaths on day 2: 4
  Deaths on day 3: 2
  Deaths on day 4: 2
  No. dying 5-22 day: 0
  Total deaths, 4th day: 11
[1]; all doses
  Total no. living longer than controls: 7
[2]; total dose .05 μg
  No. animals surviving after 5-9 days: 5
[2]; total dose .5 μg
  No. animals surviving after 5-9 days: 3
  Survivors: 0
[2]; total dose .5 μg, listed as thiosemicarbazide
  No. animals surviving after 5-9 days: 7 and 6
[3]; total dose 5 μg
  No. animals surviving after 6-10 days: 3
[3]; total dose .005 μg
  No. animals surviving after 6-10 days: 3
  No. animals surviving when 100% (or given fraction) of controls are dead: 3
  Survivors: 3
[3]; total dose .5 μg
  No. animals surviving when 100% (or given fraction) of controls are dead: 0
  Survivors: 0
[4]; total dose 5 μg
  No. animals surviving after 6-8 days: 3
  Survivors: 3
[4]; total dose .0005 μg
  Survivors: 0
[4]; total dose .005 μg
  Survivors: 0
[5]; total dose 5 μg
  Survivors: 0
[5]; total dose .005 μg
  Survivors: 0
[5]; total dose .05 μg
  Survivors: 0
[5]; total dose .5 μg
  Survivors: 0
[6]; total dose .0000005 μg
  Survivors: 0
[6]; total dose .000005 μg
  No. animals surviving after 6 days: 2
[6]; total dose .00005 μg
  No. animals surviving after 6 days: 5
[6]; total dose .0005 μg
  Survivors: 0
[6]; total dose .005 μg
  Survivors: 0
[7]; 10 ng, day 12
  Statistical Significance of Tail Lesions: < .05
[7]; 10 ng, day 14
  Statistical Significance of Tail Lesions: < .05
[7]; 10 ng, day 17
  Statistical Significance of Tail Lesions: < .05
[7]; 10 ng, day 21
  Statistical Significance of Tail Lesions: < .05
[7]; 1 μg, day 5
  Statistical Significance of Tail Lesions: < .01
[7]; 1 μg, day 6
  Statistical Significance of Tail Lesions: < .01
[7]; 1 μg, day 7
  Statistical Significance of Tail Lesions: < .01
[7]; 1 μg, day 8
  Statistical Significance of Tail Lesions: < .01
[7]; 1 μg, day 10
  Statistical Significance of Tail Lesions: < .01
[7]; 1 μg, day 11
  Statistical Significance of Tail Lesions: < .01
[7]; 1 μg, day 12
  Statistical Significance of Tail Lesions: < .01
[7]; 1 μg, day 14
  Statistical Significance of Tail Lesions: < .01
[7]; 1 μg, day 17
  Statistical Significance of Tail Lesions: < .01
[7]; 1 μg, day 21
  Statistical Significance of Tail Lesions: < .01
[7]; 10 [μg], day 6
  Statistical Significance of Tail Lesions: < .01
[7]; 10 [μg], day 10
  Statistical Significance of Tail Lesions: < .05
[7]; 10 [μg], day 11
  Statistical Significance of Tail Lesions: < .01
[7]; 10 [μg], day 12
  Statistical Significance of Tail Lesions: < .01
[7]; 10 [μg], day 14
  Statistical Significance of Tail Lesions: < .01
[7]; 10 [μg], day 17
  Statistical Significance of Tail Lesions: < .01
[7]; 10 [μg], day 21
  Statistical Significance of Tail Lesions: < .01
[7]; 100 [ng], day 8
  Statistical Significance of Tail Lesions: < .05
[7]; 100 [ng], day 10
  Statistical Significance of Tail Lesions: < .01
[7]; 100 [ng], day 11
  Statistical Significance of Tail Lesions: < .01
[7]; 100 [ng], day 12
  Statistical Significance of Tail Lesions: < .01
[7]; 100 [ng], day 14
  Statistical Significance of Tail Lesions: < .01
[7]; 100 [ng], day 17
  Statistical Significance of Tail Lesions: < .01
[7]; 100 [ng], day 21
  Statistical Significance of Tail Lesions: < .01
[8]; 0.0000025 μg/kg, Test 2
  approximate percentage confluency of the pox: 85%
[8]; 0.000025 μg/kg, Test 2
  approximate percentage confluency of the pox: 25%
[8]; 0.00025 μg/kg, Test 2
  approximate percentage confluency of the pox: 40%
[8]; 0.0025 μg/kg, Duplicate Experiments
  approximate percentage confluency of the pox: 75% and 60%
[8]; 0.0025 μg/kg, Test 1
  approximate percentage confluency of the pox: 2%
[8]; 0.0025 μg/kg, Test 2
  approximate percentage confluency of the pox: 80%
[8]; 0.0025 μg/kg, Test 3
  approximate percentage confluency of the pox: 85%
[8]; 0.025 μg/kg, Duplicate Experiments
  approximate percentage confluency of the pox: 75% and 80%
[8]; 0.025 μg/kg, Test 1
  approximate percentage confluency of the pox: 5%
[8]; 0.025 μg/kg, Test 2
  approximate percentage confluency of the pox: 5%
[8]; 0.025 μg/kg, Test 3
  approximate percentage confluency of the pox: 75% and 90%
[8]; 0.25 μg/kg, Test 1
  approximate percentage confluency of the pox: 10%
[8]; 0.25 μg/kg, Test 2
  approximate percentage confluency of the pox: 10%
[8]; 0.25 μg/kg, Test 3
  approximate percentage confluency of the pox: 30% and 40%
[8]; 2.5 μg/kg, Duplicate Experiments
  approximate percentage confluency of the pox: 30% and 20%
[8]; 2.5 μg/kg, Test 1
  approximate percentage confluency of the pox: 50%
[8]; 2.5 μg/kg, Test 2
  approximate percentage confluency of the pox: 80%
[8]; 2.5 μg/kg, Test 3
  approximate percentage confluency of the pox: 30% and 20%
[8]; 25 μg/kg, Test 1
  approximate percentage confluency of the pox: 80%
[8]; 25 μg/kg, Test 2
  approximate percentage confluency of the pox: 10%
[8]; 250 μg/kg, Test 1
  approximate percentage confluency of the pox: 80%
[8]; dose 0.25 μg/kg
  significance (T test): < .01
[8]; dose 2.5 μg/kg
  significance (T test): < .01
[8]; rabbit, in vivo
  effect on pox formation: highly significant and reproducible protective effects
[9]
  effect on pox formation on the membrane: No effect
[10]; mouse, in vivo
  activity in words: quite significant protection
[10]; total dose .000005 μg
  No. animals surviving when 100% (or given fraction) of controls are dead: 0
  Survivors: 0
[10]; total dose .00005 μg
  No. animals surviving after 6-9 days: 6
  No. animals surviving when 100% (or given fraction) of controls are dead: 3
  Survivors: 3
[10]; total dose .005 μg
  No. animals surviving after 6-9 days: 5 and 3 and 6
[10]; total dose .5 μg
  No. animals surviving after 6-9 days: 3
[11]
  surviving animals: one
[12]
  activity in words: active
